Measured values: the supplement of paper PMC5579334

Columns and labels:
S1507-2 [1] = assay: relative IC50 (inflection point of fitted dose-response curve, CellTox-Green cytotoxicity, 72 h; top asymptote may be below 50%); higher = less potent
How it was run: (§1)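 For 72 h at 37 °C, MPNST cell lines and primary human Schwann cells were exposed in 384-well plates to five 10-fold compound dilutions. CellTox-Green, added before seeding at a final 1:1000 dilution, gave fluorescence from DNA released by disrupted cells. Signals were scaled to vehicle and positive-control wells, cultures failing plate quality control were left out, and four-parameter logistic fits were applied. Relative IC50 and drug sensitivity score were derived from the fits, with IC50 censored at the top concentration.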

STS26T [2] = assay: as above
How it was run: as §1

ST8814 [3] = assay: as above
How it was run: as §1

HSC2 [4] = assay: as above
How it was run: as §1

HS-PSS [5] = assay: as above
How it was run: as §1

HSC1 [6] = assay: as above
How it was run: as §1

S1507-2 [7] = assay: relative IC50 (inflection point of fitted dose-response curve, CellTiter-Glo viability, 72 h; top asymptote may be below 50% inhibition); higher = less potent
How it was run: (§2)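 MPNST cell lines and primary human Schwann cells were seeded at 750–1000 cells per well into 384-well plates preprinted with each compound at five concentrations in 10-fold steps, then incubated 72 h at 37 °C, 5% CO2. CellTiter-Glo ATP luminescence gave viability, scaled between vehicle and positive-control wells, with duplicates averaged where present. Curves were fitted with a four-parameter logistic model. Percent inhibition refers to the top concentration, while drug sensitivity score and relative IC50, censored at the top concentration, come from these fits.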

STS26T [8] = assay: as above
How it was run: as §2

ST8814 [9] = assay: as above
How it was run: as §2

HSC2 [10] = assay: as above
How it was run: as §2

HS-Sch-2 = assay: as above
How it was run: as §2

HS-PSS [11] = assay: as above
How it was run: as §2

YST-1 = assay: as above
How it was run: as §2

HSC1 [12] = assay: as above
How it was run: as §2

S462 = assay: as above
How it was run: as §2

Structure (SMILES) | relative IC50 (S1507-2 [1]) | relative IC50 (STS26T [2]) | relative IC50 (ST8814 [3]) | relative IC50 (HSC2 [4]) | relative IC50 (HS-PSS [5]) | relative IC50 (HSC1 [6]) | relative IC50 (S1507-2 [7]) | relative IC50 (STS26T [8]) | relative IC50 (ST8814 [9]) | relative IC50 (HSC2 [10]) | relative IC50 (HS-Sch-2) | relative IC50 (HS-PSS [11]) | relative IC50 (YST-1) | relative IC50 (HSC1 [12]) | relative IC50 (S462)
CCNC(=O)CCC/C=C\C[C@@H]1[C@@H](/C=C/[C@@H](O)CCc2ccccc2)[C@H](O)C[C@@H]1O [Bimatoprost] | > 5.5 µM | > 5.5 µM | > 5.5 µM | > 5.5 µM | > 5.5 µM | > 5.5 µM | > 5.5 µM | > 5.5 µM | > 5.5 µM | > 5.5 µM | > 5.5 µM | > 5.5 µM | > 5.5 µM | > 5.5 µM | –
Oc1ncc(N(CCCl)CCCl)c(O)n1 [Uracil mustard] | > 10 µM | > 10 µM | > 10 µM | > 10 µM | – | > 10 µM | > 10 µM | > 10 µM | – | > 10 µM | – | – | – | > 10 µM | > 10 µM
O=C(NC[C@H](O)CO)c1ccncc1Nc1ccc(I)cc1F [Pimasertib] | 2.16 µM | – | 2.06 µM | > 10 µM | > 10 µM | – | 0.476 µM | 0.241 µM | 0.971 µM | 0.846 µM | 0.962 µM | 2.39 µM | 3.8 µM | 0.73 µM | 0.507 µM
C#Cc1cccc(Nc2ncnc3cc(OCCOC)c(OCCOC)cc23)c1 [Erlotinib] | > 10 µM | > 10 µM | > 10 µM | > 10 µM | > 10 µM | > 10 µM | – | 2.06 µM | 3.13 µM | 2.31 µM | 1.55 µM | 2.1 µM | 1.47 µM | 2.36 µM | 2.31 µM
N[C@@H](CSC(c1ccccc1)(c1ccccc1)c1ccccc1)C(=O)O [S-trityl-L-cysteine] | > 40 µM | > 40 µM | > 40 µM | > 40 µM | – | > 40 µM | > 40 µM | – | > 40 µM | > 40 µM | – | – | – | – | –
Oc1ccc2c(c1)CC[C@H](c1ccccc1)[C@@H]2c1ccc(OCCN2CCCC2)cc1 [Lasofoxifene] | > 1 µM | > 1 µM | > 1 µM | > 1 µM | > 1 µM | > 1 µM | > 1 µM | > 1 µM | > 1 µM | > 1 µM | > 1 µM | – | > 1 µM | > 1 µM | –
Clc1ccc(Nc2nnc(Cc3ccncc3)c3ccccc23)cc1 [Vatalanib] | > 10 µM | > 10 µM | > 10 µM | > 10 µM | > 10 µM | > 10 µM | > 10 µM | > 10 µM | > 10 µM | – | – | – | – | > 10 µM | –
O=C(O)CCCc1ccc(N(CCCl)CCCl)cc1 [Chlorambucil] | > 10 µM | > 10 µM | > 10 µM | > 10 µM | > 10 µM | > 10 µM | > 10 µM | > 10 µM | > 10 µM | – | > 10 µM | > 10 µM | – | – | > 10 µM
COc1cccc2c1C(=O)c1c(O)c3c(c(O)c1C2=O)C[C@@](O)(C(C)=O)C[C@@H]3O[C@H]1C[C@H](N)[C@H](O)[C@H](C)O1 [Daunorubicin] | > 1 µM | – | – | 0.344 µM | > 1 µM | 0.366 µM | 0.146 µM | 0.0716 µM | 0.101 µM | 0.0725 µM | 0.117 µM | 0.122 µM | 0.027 µM | 0.12 µM | 0.0493 µM
Nc1ccccc1NC(=O)c1ccc(CNC(=O)OCc2cccnc2)cc1 [Entinostat] | 3.24 µM | – | 3.64 µM | > 10 µM | – | > 10 µM | 2.68 µM | 2.74 µM | 3.7 µM | 2.56 µM | 3.41 µM | 3.73 µM | 1.24 µM | 2.34 µM | 1.5 µM
CC[C@H](CC#N)OC(=O)N[C@@H](C)c1cccc(NC(=O)Nc2ccc(-c3cnco3)c(OC)c2)c1 [AVN944] | > 10 µM | – | 0.886 µM | > 10 µM | > 10 µM | > 10 µM | 0.5 µM | 0.398 µM | 0.614 µM | 0.0934 µM | 0.64 µM | 0.309 µM | 0.317 µM | 0.108 µM | 0.32 µM
O=C1CN2Cc3c(ccc(Cl)c3Cl)N=C2N1 [Anagrelide] | > 10 µM | > 10 µM | > 10 µM | – | > 10 µM | > 10 µM | > 10 µM | > 10 µM | – | 0.134 µM | 0.144 µM | > 10 µM | > 10 µM | – | > 10 µM
CC(O)(CS(=O)(=O)c1ccc(F)cc1)C(=O)Nc1ccc(C#N)c(C(F)(F)F)c1 (stereo not drawn) [Bicalutamide] | > 10 µM | > 10 µM | > 10 µM | > 10 µM | > 10 µM | > 10 µM | > 10 µM | – | > 10 µM | > 10 µM | – | – | > 10 µM | – | –
O=C(Nc1ccc2[nH]nc(-c3ccncc3)c2c1)[C@@H]1CCN(CC(=O)N2CCN(c3ccc(-c4ncccn4)cc3)CC2)C1 | 1.95 µM | – | 0.675 µM | – | > 10 µM | > 10 µM | 0.568 µM | 0.822 µM | 0.234 µM | 0.159 µM | 0.773 µM | 0.677 µM | 2.27 µM | 0.263 µM | 0.137 µM
COc1cc2c(NC3CCN(C(C)C)CC3)nc(N3CCC(F)(F)CC3)nc2cc1OCCCN1CCCC1 [UNC0642] | 2.9 µM | 2.91 µM | 3.02 µM | > 10 µM | 2.96 µM | > 10 µM | 1.94 µM | 3.06 µM | 2.97 µM | > 10 µM | 2.88 µM | 2.6 µM | 3.19 µM | – | 2.69 µM
